Laboratory results taken from the kinase profiling compilation of Christmann-Franck et al. (2016).

Key:
Assay in all cases: radiometric filter-binding kinase assay
BRSK2 (human) = BRSK2 (human) (UniProt Q8IWQ3)
CDK9 CCNT1 (human) = CDK9 CCNT1 (human) (UniProt P50750+O60563)
CHEK2 (human) = CHEK2 (human) (UniProt O96017)
CaMK1 (human) = CaMK1 (human) (UniProt Q14012)
DDR2 (human) = DDR2 (human) (UniProt Q16832)
DYRK1A (human) = DYRK1A (human) (UniProt Q13627); details: compound 1.0 µM
DYRK2 (human) = DYRK2 (human) (UniProt Q92630)
EIF2AK3 (human) = EIF2AK3 (human) (UniProt Q9NZJ5)
EPHA2 (human) = EPHA2 (human) (UniProt P29317)
EPHB2 (human) = EPHB2 (human) (UniProt P29323)
ERBB4 (human) = ERBB4 (human) (UniProt Q15303)
FGFR1 (human) = FGFR1 (human) (UniProt P11362)
IKBKE (human) = IKBKE (human) (UniProt Q14164)
IRAK4 (human) = IRAK4 (human) (UniProt Q9NWZ3)
LCK (mouse) = details: accession and sequence are those of the human protein
MAP2K6 (human) = MAP2K6 (human) (UniProt P52564)
MAP3K9 (human) = MAP3K9 (human) (UniProt P80192)
MAP4K5 (human) = MAP4K5 (human) (UniProt Q9Y4K4)
MAPK1 (human) = MAPK1 (human) (UniProt P28482)
MAPK9 (human) = MAPK9 (human) (UniProt P45984)
MST4 (human) = MST4 (human) (UniProt Q9P289)
MYLK (human) = MYLK (human) (UniProt Q15746)
NUAK1 (human) = NUAK1 (human) (UniProt O60285)
[1] = tested on: PAK2 (human), Q13177 [T402E]
PKN2 (human) = PKN2 (human) (UniProt Q16513)
PLK1 (human) = PLK1 (human) (UniProt P53350)
PRKCG (human) = PRKCG (human) (UniProt P05129)
RPS6KA1 KD1 KD2 (human) = RPS6KA1 KD1 KD2 (human) (UniProt Q15418)
SRC (human) = SRC (human) (UniProt P12931)
TAOK1 (human) = TAOK1 (human) (UniProt Q7L7X3)
TTBK2 (human) = TTBK2 (human) (UniProt Q6IQ55)
YES1 (human) = YES1 (human) (UniProt P07947); details: compound 10.0 µM

Sequence of EIF2AK3 (human) (Q9NZJ5 whole entry, looked up): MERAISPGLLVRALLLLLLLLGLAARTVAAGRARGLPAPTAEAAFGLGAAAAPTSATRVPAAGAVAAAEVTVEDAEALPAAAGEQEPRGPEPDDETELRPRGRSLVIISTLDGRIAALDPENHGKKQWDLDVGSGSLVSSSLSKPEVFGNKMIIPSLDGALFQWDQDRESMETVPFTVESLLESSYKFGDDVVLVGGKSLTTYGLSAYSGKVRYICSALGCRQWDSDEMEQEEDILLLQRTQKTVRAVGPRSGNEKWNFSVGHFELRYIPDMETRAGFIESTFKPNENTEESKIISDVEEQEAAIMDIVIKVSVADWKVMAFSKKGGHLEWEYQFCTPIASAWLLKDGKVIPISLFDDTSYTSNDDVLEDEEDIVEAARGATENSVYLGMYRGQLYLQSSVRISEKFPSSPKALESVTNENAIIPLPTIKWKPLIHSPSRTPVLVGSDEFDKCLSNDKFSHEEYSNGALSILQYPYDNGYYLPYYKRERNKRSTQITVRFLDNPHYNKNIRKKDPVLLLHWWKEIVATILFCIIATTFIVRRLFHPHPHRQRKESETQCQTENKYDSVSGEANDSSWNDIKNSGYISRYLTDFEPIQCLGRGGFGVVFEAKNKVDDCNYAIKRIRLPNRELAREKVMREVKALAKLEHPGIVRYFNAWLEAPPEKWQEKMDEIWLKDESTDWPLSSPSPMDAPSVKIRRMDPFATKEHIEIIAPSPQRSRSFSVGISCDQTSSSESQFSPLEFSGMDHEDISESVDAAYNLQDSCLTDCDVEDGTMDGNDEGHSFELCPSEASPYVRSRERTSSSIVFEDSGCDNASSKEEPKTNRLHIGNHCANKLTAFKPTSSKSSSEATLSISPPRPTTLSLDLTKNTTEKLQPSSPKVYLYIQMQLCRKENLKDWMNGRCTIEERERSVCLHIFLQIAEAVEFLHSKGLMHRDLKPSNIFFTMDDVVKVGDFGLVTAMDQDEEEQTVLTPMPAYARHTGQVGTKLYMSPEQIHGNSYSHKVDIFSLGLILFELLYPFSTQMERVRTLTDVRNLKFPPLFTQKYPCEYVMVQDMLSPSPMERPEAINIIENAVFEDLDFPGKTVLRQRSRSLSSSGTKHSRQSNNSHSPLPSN
Sequence of ERBB4 (human) (Q15303 whole entry, looked up): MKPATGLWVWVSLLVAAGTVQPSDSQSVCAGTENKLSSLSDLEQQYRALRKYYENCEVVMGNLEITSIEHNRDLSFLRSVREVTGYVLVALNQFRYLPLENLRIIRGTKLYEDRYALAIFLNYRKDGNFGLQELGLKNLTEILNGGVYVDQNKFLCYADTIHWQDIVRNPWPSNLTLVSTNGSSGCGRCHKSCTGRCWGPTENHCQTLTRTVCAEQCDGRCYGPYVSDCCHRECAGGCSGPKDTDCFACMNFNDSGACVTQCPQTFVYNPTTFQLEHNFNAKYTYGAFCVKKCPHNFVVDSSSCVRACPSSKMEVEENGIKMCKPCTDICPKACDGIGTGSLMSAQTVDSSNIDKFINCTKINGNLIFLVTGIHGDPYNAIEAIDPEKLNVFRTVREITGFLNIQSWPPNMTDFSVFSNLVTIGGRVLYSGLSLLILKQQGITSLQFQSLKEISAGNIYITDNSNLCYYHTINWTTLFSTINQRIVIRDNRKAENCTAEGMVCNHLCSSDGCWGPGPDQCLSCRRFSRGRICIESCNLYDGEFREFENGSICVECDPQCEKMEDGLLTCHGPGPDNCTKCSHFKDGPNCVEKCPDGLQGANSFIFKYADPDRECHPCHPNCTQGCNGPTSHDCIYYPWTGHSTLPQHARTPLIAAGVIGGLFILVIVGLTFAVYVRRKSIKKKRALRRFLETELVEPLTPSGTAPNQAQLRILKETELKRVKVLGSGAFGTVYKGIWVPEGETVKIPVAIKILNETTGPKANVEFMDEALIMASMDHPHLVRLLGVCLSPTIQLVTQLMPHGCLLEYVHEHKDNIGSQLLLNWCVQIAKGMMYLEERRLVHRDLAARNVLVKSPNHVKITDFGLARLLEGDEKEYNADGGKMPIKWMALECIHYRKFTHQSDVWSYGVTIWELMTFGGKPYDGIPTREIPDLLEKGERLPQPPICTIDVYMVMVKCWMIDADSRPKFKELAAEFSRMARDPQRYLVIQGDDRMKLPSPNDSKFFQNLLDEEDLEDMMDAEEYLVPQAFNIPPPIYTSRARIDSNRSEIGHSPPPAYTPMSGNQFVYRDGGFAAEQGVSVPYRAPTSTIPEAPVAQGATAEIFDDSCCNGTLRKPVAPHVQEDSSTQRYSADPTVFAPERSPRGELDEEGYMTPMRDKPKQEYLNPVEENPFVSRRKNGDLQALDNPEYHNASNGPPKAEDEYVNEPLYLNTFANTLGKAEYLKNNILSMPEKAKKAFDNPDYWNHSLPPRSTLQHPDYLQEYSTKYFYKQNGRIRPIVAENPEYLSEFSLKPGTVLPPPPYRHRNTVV
Sequence of IKBKE (human) (Q14164 whole entry, looked up): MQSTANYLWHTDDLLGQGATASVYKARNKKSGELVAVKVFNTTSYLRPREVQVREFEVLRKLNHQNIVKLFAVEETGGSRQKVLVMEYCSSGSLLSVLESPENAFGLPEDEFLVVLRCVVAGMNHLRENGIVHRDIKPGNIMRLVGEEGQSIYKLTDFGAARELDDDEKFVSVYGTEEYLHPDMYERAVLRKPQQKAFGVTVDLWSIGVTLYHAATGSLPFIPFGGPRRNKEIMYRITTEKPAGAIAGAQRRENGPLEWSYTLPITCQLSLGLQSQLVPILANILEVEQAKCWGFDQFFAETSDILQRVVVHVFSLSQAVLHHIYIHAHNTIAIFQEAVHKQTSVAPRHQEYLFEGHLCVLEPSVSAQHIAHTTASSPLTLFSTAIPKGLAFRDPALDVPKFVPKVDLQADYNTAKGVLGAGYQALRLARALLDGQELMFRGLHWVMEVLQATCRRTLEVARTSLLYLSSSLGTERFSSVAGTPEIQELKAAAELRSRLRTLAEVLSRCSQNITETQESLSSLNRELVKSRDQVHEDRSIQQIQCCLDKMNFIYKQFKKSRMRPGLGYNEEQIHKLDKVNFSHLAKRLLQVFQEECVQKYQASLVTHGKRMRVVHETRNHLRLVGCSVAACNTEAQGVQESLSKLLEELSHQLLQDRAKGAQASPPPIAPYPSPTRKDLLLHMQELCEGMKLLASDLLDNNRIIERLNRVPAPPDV
Sequence of CHEK2 (human) (O96017 whole entry, looked up): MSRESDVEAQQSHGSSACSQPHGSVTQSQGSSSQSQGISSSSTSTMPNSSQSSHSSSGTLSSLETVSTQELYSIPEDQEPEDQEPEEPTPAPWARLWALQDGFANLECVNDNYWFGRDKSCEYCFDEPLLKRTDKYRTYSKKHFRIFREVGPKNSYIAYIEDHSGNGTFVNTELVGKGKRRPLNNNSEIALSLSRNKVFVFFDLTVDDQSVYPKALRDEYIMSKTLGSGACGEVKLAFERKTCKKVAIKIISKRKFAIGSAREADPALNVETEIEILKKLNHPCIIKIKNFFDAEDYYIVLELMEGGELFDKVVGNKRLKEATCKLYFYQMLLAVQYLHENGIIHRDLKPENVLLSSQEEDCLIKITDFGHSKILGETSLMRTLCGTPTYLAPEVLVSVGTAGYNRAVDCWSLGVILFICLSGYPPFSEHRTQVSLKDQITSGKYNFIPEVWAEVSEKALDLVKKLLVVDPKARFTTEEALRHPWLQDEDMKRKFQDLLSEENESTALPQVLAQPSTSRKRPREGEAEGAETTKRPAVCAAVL
Sequence of TTBK2 (human) (Q6IQ55 whole entry, looked up): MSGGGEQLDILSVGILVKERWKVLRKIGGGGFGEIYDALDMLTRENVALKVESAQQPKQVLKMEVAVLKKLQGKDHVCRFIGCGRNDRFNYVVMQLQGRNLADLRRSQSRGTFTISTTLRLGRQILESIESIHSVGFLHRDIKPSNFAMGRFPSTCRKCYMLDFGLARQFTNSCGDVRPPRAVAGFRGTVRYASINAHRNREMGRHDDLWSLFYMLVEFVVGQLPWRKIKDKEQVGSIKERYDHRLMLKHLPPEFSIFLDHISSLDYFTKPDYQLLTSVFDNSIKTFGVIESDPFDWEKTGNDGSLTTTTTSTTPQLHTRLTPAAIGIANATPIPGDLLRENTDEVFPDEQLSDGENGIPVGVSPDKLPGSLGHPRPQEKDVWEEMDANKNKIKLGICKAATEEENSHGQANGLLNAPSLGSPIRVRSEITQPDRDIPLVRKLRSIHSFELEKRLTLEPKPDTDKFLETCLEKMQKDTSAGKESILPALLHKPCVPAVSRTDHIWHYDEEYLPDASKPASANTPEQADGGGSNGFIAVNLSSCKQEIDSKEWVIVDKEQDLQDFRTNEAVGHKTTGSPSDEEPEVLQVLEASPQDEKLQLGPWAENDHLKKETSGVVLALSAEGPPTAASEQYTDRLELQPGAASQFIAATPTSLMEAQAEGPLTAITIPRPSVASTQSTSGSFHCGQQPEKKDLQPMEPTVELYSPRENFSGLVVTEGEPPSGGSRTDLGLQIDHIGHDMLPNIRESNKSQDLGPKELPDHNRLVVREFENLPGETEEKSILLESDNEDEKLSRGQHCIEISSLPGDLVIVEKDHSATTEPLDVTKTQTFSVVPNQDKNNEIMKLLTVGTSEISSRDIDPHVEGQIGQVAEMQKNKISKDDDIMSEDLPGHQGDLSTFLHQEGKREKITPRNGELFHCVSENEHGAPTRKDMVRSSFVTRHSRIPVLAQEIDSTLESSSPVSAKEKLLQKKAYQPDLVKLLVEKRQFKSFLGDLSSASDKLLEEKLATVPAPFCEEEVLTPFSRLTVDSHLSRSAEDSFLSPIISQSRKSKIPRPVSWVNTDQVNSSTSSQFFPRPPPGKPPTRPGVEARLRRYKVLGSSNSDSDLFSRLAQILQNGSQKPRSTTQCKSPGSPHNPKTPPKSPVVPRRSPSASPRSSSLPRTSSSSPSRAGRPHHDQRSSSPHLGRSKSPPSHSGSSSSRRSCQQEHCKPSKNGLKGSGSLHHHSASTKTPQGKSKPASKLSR

Compound: CNc1nc(Nc2ccc(C(=O)N3CCOCC3)cc2OC)ncc1Cl
- residual activity (BRSK2 (human); compound 1.0 µM): 78%
- residual activity (BRSK2 (human); compound 10.0 µM): 64%
- residual activity (CDK9 CCNT1 (human); compound 1.0 µM): 89%
- residual activity (CDK9 CCNT1 (human); compound 10.0 µM): 83%
- residual activity (CHEK2 (human); compound 1.0 µM): 52%
- residual activity (CHEK2 (human); compound 10.0 µM): 96%
- residual activity (CaMK1 (human); compound 1.0 µM): 85%
- residual activity (CaMK1 (human); compound 10.0 µM): 66%
- residual activity (DDR2 (human); compound 1.0 µM): 103%
- residual activity (DDR2 (human); compound 10.0 µM): 90%
- residual activity (DYRK1A (human)): 79%
- residual activity (DYRK2 (human); compound 1.0 µM): 44%
- residual activity (DYRK2 (human); compound 10.0 µM): 21%
- residual activity (EIF2AK3 (human); compound 1.0 µM): 99%
- residual activity (EIF2AK3 (human); compound 10.0 µM): 97%
- residual activity (EPHA2 (human); compound 1.0 µM): 93%
- residual activity (EPHA2 (human); compound 10.0 µM): 97%
- residual activity (EPHB2 (human); compound 1.0 µM): 105%
- residual activity (EPHB2 (human); compound 10.0 µM): 103%
- residual activity (ERBB4 (human); compound 1.0 µM): 89%
- residual activity (ERBB4 (human); compound 10.0 µM): 94%
- residual activity (FGFR1 (human); compound 1.0 µM): 89%
- residual activity (FGFR1 (human); compound 10.0 µM): 86%
- residual activity (IKBKE (human); compound 1.0 µM): 77%
- residual activity (IKBKE (human); compound 10.0 µM): 75%
- residual activity (IRAK4 (human); compound 1.0 µM): 90%
- residual activity (IRAK4 (human); compound 10.0 µM): 86%
- residual activity (LCK (mouse); compound 1.0 µM): 92%
- residual activity (LCK (mouse); compound 10.0 µM): 95%
- residual activity (MAP2K6 (human); compound 1.0 µM): 74%
- residual activity (MAP2K6 (human); compound 10.0 µM): 65%
- residual activity (MAP3K9 (human); compound 1.0 µM): 38%
- residual activity (MAP3K9 (human); compound 10.0 µM): 18%
- residual activity (MAP4K5 (human); compound 1.0 µM): 83%
- residual activity (MAP4K5 (human); compound 10.0 µM): 82%
- residual activity (MAPK1 (human); compound 1.0 µM): 79%
- residual activity (MAPK1 (human); compound 10.0 µM): 69%
- residual activity (MAPK9 (human); compound 1.0 µM): 76%
- residual activity (MAPK9 (human); compound 10.0 µM): 46%
- residual activity (MST4 (human); compound 1.0 µM): 101%
- residual activity (MST4 (human); compound 10.0 µM): 106%
- residual activity (MYLK (human); compound 1.0 µM): 83%
- residual activity (MYLK (human); compound 10.0 µM): 55%
- residual activity (NUAK1 (human); compound 1.0 µM): 43%
- residual activity (NUAK1 (human); compound 10.0 µM): 20%
- residual activity ([1]; compound 1.0 µM): 97%
- residual activity ([1]; compound 10.0 µM): 105%
- residual activity (PKN2 (human); compound 1.0 µM): 102%
- residual activity (PKN2 (human); compound 10.0 µM): 92%
- residual activity (PLK1 (human); compound 1.0 µM): 97%
- residual activity (PLK1 (human); compound 10.0 µM): 105%
- residual activity (PRKCG (human); compound 1.0 µM): 93%
- residual activity (PRKCG (human); compound 10.0 µM): 108%
- residual activity (RPS6KA1 KD1 KD2 (human); compound 1.0 µM): 87%
- residual activity (RPS6KA1 KD1 KD2 (human); compound 10.0 µM): 54%
- residual activity (SRC (human); compound 1.0 µM): 84%
- residual activity (SRC (human); compound 10.0 µM): 79%
- residual activity (TAOK1 (human); compound 1.0 µM): 81%
- residual activity (TAOK1 (human); compound 10.0 µM): 93%
- residual activity (TTBK2 (human); compound 1.0 µM): 115%
- residual activity (TTBK2 (human); compound 10.0 µM): 97%
- residual activity (YES1 (human)): 90%
